# Assay results as given in the SangsterLogP compilation.
# Test: method code SF-HPLC, from DOI: 10.1023/a:1015933504191, PMID: 2122435
# Settings: pH 7.4
row,Structure (SMILES),logD
1,CCCCC(CC)COC(=O)n1cnc(C[C@H](NC(=O)[C@@H]2CCC(=O)N2)C(=O)N2CCC[C@H]2C(N)=O)c1 (some centres not stated),1.82
2,NC(=O)[C@@H]1CCCN1C(=O)[C@H](Cc1cn(C(=O)OCc2ccccc2)cn1)NC(=O)[C@@H]1CCC(=O)N1,-0.11
3,CCOC(=O)n1cnc(C[C@H](NC(=O)[C@@H]2CCC(=O)N2)C(=O)N2CCC[C@H]2C(N)=O)c1,-1.3
4,CCCCCCOC(=O)n1cnc(C[C@H](NC(=O)[C@@H]2CCC(=O)N2)C(=O)N2CCC[C@H]2C(N)=O)c1,0.71
5,CCCC(CCC)OC(=O)n1cnc(C[C@H](NC(=O)[C@@H]2CCC(=O)N2)C(=O)N2CCC[C@H]2C(N)=O)c1,1.2
6,NC(=O)[C@@H]1CCCN1C(=O)[C@H](Cc1cn(C(=O)OC2CCCCC2)cn1)NC(=O)[C@@H]1CCC(=O)N1,0.6
7,CCCCOC(=O)n1cnc(C[C@H](NC(=O)[C@@H]2CCC(=O)N2)C(=O)N2CCC[C@H]2C(N)=O)c1,-0.47
8,COC(=O)n1cnc(C[C@H](NC(=O)[C@@H]2CCC(=O)N2)C(=O)N2CCC[C@H]2C(N)=O)c1,-1.88
9,CCC(CC)OC(=O)n1cnc(C[C@H](NC(=O)[C@@H]2CCC(=O)N2)C(=O)N2CCC[C@H]2C(N)=O)c1,0.2
10,CC(C)OC(=O)n1cnc(C[C@H](NC(=O)[C@@H]2CCC(=O)N2)C(=O)N2CCC[C@H]2C(N)=O)c1,-0.8
11,CC(C)COC(=O)n1cnc(C[C@H](NC(=O)[C@@H]2CCC(=O)N2)C(=O)N2CCC[C@H]2C(N)=O)c1,-0.44
12,CCCCCCCCOC(=O)n1cnc(C[C@H](NC(=O)[C@@H]2CCC(=O)N2)C(=O)N2CCC[C@H]2C(N)=O)c1,1.88
